Test results published in patent US20240358777A1, “COMPOSITIONS COMPRISING BACILLUS AMYLOLIQUEFACIENS FOR PREVENTING AND TREATING ULCERATIVE COLITIS” (Artugen Therapeutics Ltd., priority 2021, published 2024).
Converted amounts (≈) assume the structure as drawn.

Experiments:
ART24 [1] = assay: Antibiotic susceptibility of ART24, MIC, VetMIC Lact-1 & Lact-2 panels (Table 6); type: cell-based, Bacillus amyloliquefaciens; conditions: for MIC: Bacillus amyloliquefaciens, read-out: ART24 MIC
Description: The minimum inhibitory concentration (MIC) of the listed antimicrobials is expressed as μg/mL. […] From this suspension 46 μL was transferred in to 23 mL of 90% Iso-Sensitest Broth (CM0473, Oxoid) containing 10% BHI broth to end with a final inoculum concentration of 5×10^5 CFU/mL. The wells of the prefabricated 96-well plates were filled with 100 μL of the final suspension. The plates were sealed with an […], Sigma Aldrich) sealing film (to facilitate growth of the […] strains. The plates were then incubated for 24 hr at 37° C. The results are recorded after 24 hours as the lowest concentration of the antibiotic to inhibit visible growth. The prefabricated panels […], Uppsala, Sweden) comprising the antibiotics ampicillin, vancomycin, gentamicin, kanamycin, streptomycin, erythromycin, clindamycin, tetracycline, chloramphenicol, neomycin, penicillin, quinupristin-dalfopristin, linezolid, trimethoprim, ciprofloxacin and rifampicin were used.

ART24 [2] = assay: Additional EFSA-recommended MIC studies on ART24 lots and cell banks (Table 7); type: cell-based, Bacillus amyloliquefaciens
Description: The minimum inhibitory concentration (MIC) of the listed antimicrobials is expressed as μg/mL. Additional studies following EFSA testing recommendations were performed on lyophilized ART24 lots CO-33-10A2 and CO-33-12A2 and Research and Master Cell Banks CO-33-ART24 BHI and CO-33-ART24 SYD, and those results are shown in Table 7.

[3] = 24 hr at 37° C., average results from N = 6
[4] = Bacillus amyloliquefaciens, source CO-33-10A2 (lyophilized lot), read-out: MIC
[5] = Bacillus amyloliquefaciens, source CO-33-12A2 (lyophilized lot), read-out: MIC
[6] = Bacillus amyloliquefaciens, source CO-33 ART 24 BHI, read-out: MIC
[7] = Bacillus amyloliquefaciens, source CO-33 ART 024 SYD, read-out: MIC
[8] = source CO-33-10A2 (lyophilized lot)
[9] = source CO-33-12A2 (lyophilized lot)

Compound | MIC (ART24 [1]; [3]) [µg/mL] | MIC (ART24 [2]; [4]) [µg/mL] | MIC (ART24 [2]; [5]) [µg/mL] | MIC (ART24 [2]; [6]) [µg/mL] | MIC (ART24 [2]; [7]) [µg/mL] | MIC interpretation (ART24 [2]; source CO-33-10A2) | MIC interpretation (ART24 [2]; source CO-33-12A2) | MIC interpretation (ART24 [2]; source CO-33 ART 24 BHI) | MIC interpretation (ART24 [2]; source CO-33 ART 024 SYD) | other results
CC1(C)S[C@@H]2[C@H](NC(=O)[C@H](N)c3ccccc3)C(=O)N2[C@H]1C(=O)O [Ampicillin] | 0.25 (≈ 0.715 µM) | ≤ 0.03 | ≤ 0.03 | ≤ 0.03 | ≤ 0.03 | (S) | (S) | (S) | (S) | 
O=C(N[C@H](CO)[C@H](O)c1ccc([N+](=O)[O-])cc1)C(Cl)Cl [Chloroamphenicol, Chloramphenicol] | 4 (≈ 12.4 µM) | 2 (≈ 6.19 µM) | 2 (≈ 6.19 µM) | 2 (≈ 6.19 µM) | 2 (≈ 6.19 µM) | (S) | (S) | (S) | (S) | 
O=C(O)c1cn(C2CC2)c2cc(N3CCNCC3)c(F)cc2c1=O [Ciprofloxacin] | ≤ 0.25 | ≤ 0.03 | ≤ 0.03 | ≤ 0.03 | ≤ 0.03 | (S) | (S) | (S) | (S) | 
CCC[C@@H]1C[C@@H](C(=O)N[C@@H]([C@H]2O[C@H](SC)[C@H](O)[C@@H](O)[C@H]2O)[C@H](C)Cl)N(C)C1 [Clindamycin] | 0.5 to 1 (≈ 1.18 to 2.35 µM) | 0.12 (≈ 0.282 µM) | 0.25 (≈ 0.588 µM) | 0.25 (≈ 0.588 µM) | 0.25 (≈ 0.588 µM) | (S) | (S) | (S) | (S) | 
CC[C@H]1OC(=O)[C@H](C)[C@@H](O[C@H]2C[C@@](C)(OC)[C@@H](O)[C@H](C)O2)[C@H](C)[C@@H](O[C@@H]2O[C@H](C)C[C@H](N(C)C)[C@H]2O)[C@](C)(O)C[C@@H](C)C(=O)[C@H](C)[C@@H](O)[C@]1(C)O [Erythromycin] | 0.12 (≈ 0.164 µM) | 0.06 (≈ 0.0818 µM) | 0.06 (≈ 0.0818 µM) | 0.12 (≈ 0.164 µM) | 0.12 (≈ 0.164 µM) | (S) | (S) | (S) | (S) | 
CCc1c(Cl)c(O)c(Cl)c(O)c1C(=O)O[C@H]1[C@H](O)[C@H](OC)[C@H](OC/C2=C\C=C\C[C@H](O)/C(C)=C/[C@H](CC)[C@@H](O[C@@H]3OC(C)(C)[C@@H](OC(=O)C(C)C)[C@H](O)[C@@H]3O)/C(C)=C/C(C)=C/C[C@@H]([C@@H](C)O)OC2=O)O[C@@H]1C [Fidaxomicin] |  | 2 (≈ 1.89 µM) | 4 (≈ 3.78 µM) | 4 (≈ 3.78 µM) | 4 (≈ 3.78 µM) |  |  |  |  | 
NC[C@H]1O[C@H](O[C@H]2[C@H](O)[C@@H](O[C@H]3O[C@H](CO)[C@@H](O)[C@H](N)[C@H]3O)[C@H](N)C[C@@H]2N)[C@H](O)[C@@H](O)[C@@H]1O [Kanamycin] | ≤ 2 | ≤ 0.5 | ≤ 0.5 | ≤ 0.5 | ≤ 0.5 | (S) | (S) | (S) | (S) | 
CC(=O)NC[C@H]1CN(c2ccc(N3CCOCC3)c(F)c2)C(=O)O1 [Linezolid] | 0.5 (≈ 1.48 µM) | 0.25 (≈ 0.741 µM) | 0.5 (≈ 1.48 µM) | 0.5 (≈ 1.48 µM) | 0.5 (≈ 1.48 µM) |  |  |  |  | 
Cc1ncc([N+](=O)[O-])n1CCO [Metronidazole] |  |  |  |  |  |  |  |  |  | MIC (ART24 [2]; Bacillus amyloliquefaciens, aerobic, source CO-33-10A2, read-out: MIC): > 64 µg/mL; MIC (ART24 [2]; Bacillus amyloliquefaciens, aerobic, source CO-33-12A2, read-out: MIC): > 64 µg/mL; MIC (ART24 [2]; Bacillus amyloliquefaciens, aerobic, source CO-33 ART 24 BHI, read-out: MIC): > 64 µg/mL; MIC (ART24 [2]; Bacillus amyloliquefaciens, aerobic, source CO-33 ART 024 SYD, read-out: MIC): > 64 µg/mL; MIC (ART24 [2]; Bacillus amyloliquefaciens, anaerobic, source CO-33-10A2, read-out: MIC): 64 µg/mL (≈ 374 µM); MIC (ART24 [2]; Bacillus amyloliquefaciens, anaerobic, source CO-33-12A2, read-out: MIC): 64 µg/mL (≈ 374 µM); MIC (ART24 [2]; Bacillus amyloliquefaciens, anaerobic, source CO-33 ART 24 BHI, read-out: MIC): 64 µg/mL (≈ 374 µM); MIC (ART24 [2]; Bacillus amyloliquefaciens, anaerobic, source CO-33 ART 024 SYD, read-out: MIC): 64 µg/mL (≈ 374 µM)
CO[C@H]1/C=C/O[C@@]2(C)Oc3c(C)c(O)c4c(O)c(c(/C=N/N5CCN(C)CC5)c(O)c4c3C2=O)NC(=O)/C(C)=C\C=C\[C@H](C)[C@H](O)[C@@H](C)[C@@H](O)[C@@H](C)[C@H](OC(C)=O)[C@@H]1C [Rifampicin] | 0.5 (≈ 0.608 µM) | 0.25 (≈ 0.304 µM) | 0.25 (≈ 0.304 µM) | 0.25 (≈ 0.304 µM) | 0.25 (≈ 0.304 µM) | (S) | (S) | (S) | (S) | 
[H]/N=C(/N)N[C@H]1[C@H](O)[C@@H](O)[C@H](O[C@@H]2O[C@@H](C)[C@](O)(C=O)[C@H]2O[C@@H]2O[C@@H](CO)[C@H](O)[C@@H](O)[C@@H]2NC)[C@@H](N/C(N)=N\[H])[C@@H]1O [Streptomycin] | 4 (≈ 6.88 µM) | 1 (≈ 1.72 µM) | 1 (≈ 1.72 µM) | 1 (≈ 1.72 µM) | 2 (≈ 3.44 µM) | (S) | (S) | (S) | (S) | 
CN(C)[C@@H]1C(O)=C(C(N)=O)C(=O)[C@@]2(O)C(O)=C3C(=O)c4c(O)cccc4[C@@](C)(O)[C@H]3C[C@@H]12 [Tetracycline] | 4 (≈ 9 µM) | 2 (≈ 4.5 µM) | 2 (≈ 4.5 µM) | 2 (≈ 4.5 µM) | 2 (≈ 4.5 µM) | (S) | (S) | (S) | (S) | 
COc1cc(Cc2cnc(N)nc2N)cc(OC)c1OC [Trimethoprim] | < 0.12 | ≤ 0.25 | < 0.25 | < 0.25 | < 0.25 |  |  |  |  | 
CN[C@H](CC(C)C)C(=O)N[C@H]1C(=O)N[C@@H](CC(N)=O)C(=O)N[C@H]2C(=O)N[C@H]3C(=O)N[C@H](C(=O)N[C@H](C(=O)O)c4cc(O)cc(O)c4-c4cc3ccc4O)[C@H](O)c3ccc(c(Cl)c3)Oc3cc2cc(c3O[C@@H]2O[C@H](CO)[C@@H](O)[C@H](O)[C@H]2O[C@H]2C[C@](C)(N)[C@H](O)[C@H](C)O2)Oc2ccc(cc2Cl)[C@H]1O [Vancomycin] |  |  |  |  |  | (S) | (S) | (S) | (S) | MIC (ART24 [1]; 24 h): 0.5 to 1 µg/mL (≈ 0.345 to 0.69 µM); MIC (ART24 [2]; Bacillus amyloliquefaciens, source CO-33-10A2 (lyophilized lot)): ≤ 0.25 µg/mL; MIC (ART24 [2]; Bacillus amyloliquefaciens, source CO-33-12A2 (lyophilized lot)): ≤ 0.25 µg/mL; MIC (ART24 [2]; Bacillus amyloliquefaciens, source CO-33 ART 24 BHI): 0.5 µg/mL (≈ 0.345 µM); MIC (ART24 [2]; Bacillus amyloliquefaciens, source CO-33 ART 024 SYD): ≤ 0.25 µg/mL
Gentamicin |  |  |  |  |  | (S) | (S) | (S) | (S) | ART24 MIC (ART24 [1]; [3]): ≤0.5 µg/mL; MIC (ART24 [2]; [8]): ≤0.06 µg/mL; MIC (ART24 [2]; [9]): ≤0.06 µg/mL; MIC (ART24 [2]; source CO-33 ART 24 BHI): ≤0.06 µg/mL; MIC (ART24 [2]; source CO-33 ART 024 SYD): ≤0.06 µg/mL
Neomycin |  |  |  |  |  |  |  |  |  | ART24 MIC (ART24 [1]; [3]): ≤0.5 µg/mL; MIC (ART24 [2]; [8]): ≤0.12 µg/mL; MIC (ART24 [2]; [9]): ≤0.12 µg/mL; MIC (ART24 [2]; source CO-33 ART 24 BHI): ≤0.12 µg/mL; MIC (ART24 [2]; source CO-33 ART 024 SYD): ≤0.12 µg/mL
Penicillin |  |  |  |  |  | (S) | (S) | (S) | (S) | ART24 MIC (ART24 [1]; [3]): 0.12 to 0.5 µg/mL; MIC (ART24 [2]; [8]): ≤0.03 µg/mL; MIC (ART24 [2]; [9]): ≤0.03 µg/mL; MIC (ART24 [2]; source CO-33 ART 24 BHI): ≤0.03 µg/mL; MIC (ART24 [2]; source CO-33 ART 024 SYD): 0.06 µg/mL
Quinupristin-dalfopristin |  |  |  |  |  |  |  |  |  | ART24 MIC (ART24 [1]; [3]): 4 µg/mL; MIC (ART24 [2]; [8]): 1 µg/mL; MIC (ART24 [2]; [9]): 2 µg/mL; MIC (ART24 [2]; source CO-33 ART 24 BHI): 2 µg/mL; MIC (ART24 [2]; source CO-33 ART 024 SYD): 2 µg/mL
